Data on five compounds can be found in US9944654B2, “Nargenicin compounds and uses thereof as antibacterial agents” (priority 2014, dated 2018).

The target of assay [1] is T1, E. coli DnaE (DNA polymerase III α-subunit from Escherichia coli) (Escherichia coli, UniProt P10443).
T1 construct: EcDnaE (E. coli DnaE residues 1-1160); 6xHis (N); made in house; host or cells: E. coli BL21(DE3)
Nature of the assay: In vitro DnaE single enzyme assay (E. coli). In kind it is biochemical. The gist of the method:
(§1)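 3H-dTTP (0.011 mM) incorporation into DNase I-activated calf thymus DNA, alongside the other three dNTPs at 0.025 mM, measured by filter counting after TCA precipitation. Reactions ran 30 min at 30° C., started with purified N-His DnaE: 0.8 μg/ml for E. coli, 0.05 μg/ml for S. aureus.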

Assay [2] concerns the target T2, S. aureus DnaE (DNA polymerase III α-subunit homolog from Staphylococcus aureus) (Staphylococcus aureus, UniProt Q5HF71).
T2 construct: SaDnaE (S. aureus DnaE residues 1-1065); 6xHis (N); made in house; host or cells: E. coli BL21-AI
T2 sequence (Q5HF71 1-1065): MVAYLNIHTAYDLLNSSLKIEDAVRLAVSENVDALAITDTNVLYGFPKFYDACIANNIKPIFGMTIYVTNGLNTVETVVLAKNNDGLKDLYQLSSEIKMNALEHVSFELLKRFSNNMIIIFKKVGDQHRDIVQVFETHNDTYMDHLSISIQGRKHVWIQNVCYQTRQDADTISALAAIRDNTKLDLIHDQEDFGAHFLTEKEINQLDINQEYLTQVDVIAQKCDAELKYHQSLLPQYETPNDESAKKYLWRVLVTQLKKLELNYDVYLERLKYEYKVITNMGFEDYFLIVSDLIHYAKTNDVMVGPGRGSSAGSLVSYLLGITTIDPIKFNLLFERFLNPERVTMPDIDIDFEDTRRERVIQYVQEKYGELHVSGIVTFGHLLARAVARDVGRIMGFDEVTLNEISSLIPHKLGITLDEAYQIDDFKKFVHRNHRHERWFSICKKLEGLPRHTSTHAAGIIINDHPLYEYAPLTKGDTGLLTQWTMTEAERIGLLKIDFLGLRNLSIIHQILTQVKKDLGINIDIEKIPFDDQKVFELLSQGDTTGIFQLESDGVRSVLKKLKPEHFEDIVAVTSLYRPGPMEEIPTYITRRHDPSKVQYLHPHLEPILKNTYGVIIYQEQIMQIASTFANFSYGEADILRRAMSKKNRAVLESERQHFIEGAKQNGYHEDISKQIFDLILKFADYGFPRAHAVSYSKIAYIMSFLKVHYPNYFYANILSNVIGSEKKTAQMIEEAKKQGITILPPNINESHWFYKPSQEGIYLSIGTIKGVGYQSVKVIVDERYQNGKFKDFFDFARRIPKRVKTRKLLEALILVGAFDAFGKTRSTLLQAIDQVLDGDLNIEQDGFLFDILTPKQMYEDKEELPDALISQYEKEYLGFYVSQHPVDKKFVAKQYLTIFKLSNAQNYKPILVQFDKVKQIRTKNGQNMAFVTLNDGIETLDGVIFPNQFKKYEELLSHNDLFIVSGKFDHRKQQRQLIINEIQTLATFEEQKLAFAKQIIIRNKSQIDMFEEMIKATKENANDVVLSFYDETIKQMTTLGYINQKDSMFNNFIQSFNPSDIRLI
Nature of the assay: biochemical. As to conditions: for IC50: S. aureus DnaE IC50. Type of assay: biochemical. The gist of the method:
as §1

The test system of assay [3] is Escherichia coli MB5747 (LS 883, tolC). In words: microbe, parasite or virus in culture. Type of assay: cell-based. The conditions noted are these: * = some reduction of growth versus control at […]; for MIC: Escherichia coli, read-out: E. coli LS883 tolC (MIC), MHII broth.
Assay [4] relates to Pseudomonas aeruginosa MB5890 (CB1101, efflux-deleted). Nature of the assay: microbe, parasite or virus in culture. The conditions noted are these: * = some reduction of growth versus control at […]; for MIC: Pseudomonas aeruginosa, read-out: P. aeruginosa MB5890 efflux-del (MIC), MHII broth. Type of assay: cell-based.
In assay [5] the test system is Staphylococcus aureus MB6266 (MRSA COL). Nature of the assay: Nargenicin antibacterial assay (MIC), S. aureus. As to conditions: * = some reduction of growth versus control at […]; for MIC: Staphylococcus aureus, MRSA, read-out: S. aureus COL (MIC), MHII broth + 50% human serum. Type of assay: cell-based.
Assay [6] deals with Streptococcus pneumoniae MB6357 (CL 2883). Nature of the assay: Nargenicin antibacterial assay (MIC), S. pneumoniae. In kind it is cell-based. The conditions noted are these: * = some reduction of growth versus control at […]; for MIC: Streptococcus pneumoniae, read-out: S. pneumoniae MB2883 (MIC), Isosensitest broth.
Assay [7] deals with Drug susceptible M. tuberculosis clinical isolates. Type of assay: cell-based, Mycobacterium tuberculosis.
The mark [8] stands for this setting: read-out: E. coli DnaE IC50 (converted).

SMILES strings stand for the structures. ≈ marks a conversion by molar mass, not a printed value. Like-named read-outs stand apart in the source and are kept apart here.

T1 sequence (P10443 whole entry, the tested form may be a part): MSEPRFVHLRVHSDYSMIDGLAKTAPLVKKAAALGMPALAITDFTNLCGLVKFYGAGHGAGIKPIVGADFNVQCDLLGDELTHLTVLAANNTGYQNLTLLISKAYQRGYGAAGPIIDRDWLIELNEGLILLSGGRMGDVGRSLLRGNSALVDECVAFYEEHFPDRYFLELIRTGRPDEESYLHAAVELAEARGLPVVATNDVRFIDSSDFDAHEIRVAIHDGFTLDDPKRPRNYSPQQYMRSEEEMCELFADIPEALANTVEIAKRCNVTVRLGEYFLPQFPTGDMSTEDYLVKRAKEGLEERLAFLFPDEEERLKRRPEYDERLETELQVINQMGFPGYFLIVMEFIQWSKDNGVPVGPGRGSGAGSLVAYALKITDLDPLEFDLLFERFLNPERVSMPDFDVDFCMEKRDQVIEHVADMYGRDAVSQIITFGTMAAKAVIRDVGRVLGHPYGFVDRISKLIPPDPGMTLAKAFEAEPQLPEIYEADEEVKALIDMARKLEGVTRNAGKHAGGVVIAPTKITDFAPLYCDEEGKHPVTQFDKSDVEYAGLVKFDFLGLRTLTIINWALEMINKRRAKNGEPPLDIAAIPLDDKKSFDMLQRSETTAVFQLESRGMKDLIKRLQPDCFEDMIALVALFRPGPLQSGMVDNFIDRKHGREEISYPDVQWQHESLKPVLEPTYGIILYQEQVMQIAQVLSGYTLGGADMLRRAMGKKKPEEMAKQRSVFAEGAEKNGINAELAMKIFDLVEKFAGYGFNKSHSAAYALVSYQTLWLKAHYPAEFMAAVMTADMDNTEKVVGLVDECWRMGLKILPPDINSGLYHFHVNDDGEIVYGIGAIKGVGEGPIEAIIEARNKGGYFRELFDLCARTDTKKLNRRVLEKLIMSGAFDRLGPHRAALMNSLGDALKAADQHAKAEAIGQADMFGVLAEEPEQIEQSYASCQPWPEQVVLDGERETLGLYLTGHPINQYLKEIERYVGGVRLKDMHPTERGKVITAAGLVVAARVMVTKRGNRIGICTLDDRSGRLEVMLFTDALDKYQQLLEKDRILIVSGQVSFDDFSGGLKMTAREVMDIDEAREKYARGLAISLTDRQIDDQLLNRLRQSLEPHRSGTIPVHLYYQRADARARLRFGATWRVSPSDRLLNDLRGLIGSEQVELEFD

Take `CO[C@H]1C[C@H]2C=CC3C4[C@H](O)[C@@H](C)[C@@H](OC(=O)c5ccc[nH]5)[C@@H]3O[C@]42/C(C)=C/[C@@H](C)[C@@H]([C@@H](C)OC(=O)C(=O)N2CCOCC2)OC1=O` [Example 118]: the “E. coli DnaE IC50” value in assay [1] was over 100 µg/mL. In addition, the “S. aureus DnaE IC50” value in assay [2] amounted to 4 ng/mL. The “E. coli LS883 tolC (MIC)” value in assay [3] (MHII broth) amounted to 1 µg/mL. Besides, in assay [4] (MHII broth), the “P. aeruginosa MB5890 efflux-del (MIC)” value amounted to 32 µg/mL. For the same compound, in assay [5] (MHII broth + 50% human serum), the “S. aureus COL (MIC)” value came to 0.5 µg/mL. In assay [6] (Isosensitest broth), the “S. pneumoniae MB2883 (MIC)” value was 128 µg/mL. Also, in assay [7], the “MICs compared with nargenicin” value is “equal to or better than nargenicin”.

Regarding `CO[C@H]1CC2C=C[C@H]3[C@H]4O[C@]2(/C(C)=C/[C@@H](C)[C@@H](C(C)O)OC1=O)[C@@H]3[C@H](O)[C@@H](C)[C@H]4OC(=O)c1cccn1C(=O)C(C)C` (some centres unmarked) [Example 204], the “MICs compared with nargenicin” value in assay [7] (M. tuberculosis clinical isolates (MTB panel)) is given as “equal to or better than nargenicin”.

For the compound `CO[C@H]1C[C@H]2C=C[C@H]3[C@H]4O[C@]2(/C(C)=C/[C@@H](C)COC1=O)[C@@H]3[C@H](O)[C@@H](C)[C@H]4OC(=O)c1ccc[nH]1` [Example 47, (3R,7S,8aS,10aR,11R,12R,13R,14R,14aS,14bS,E)-14-hydroxy-7-methoxy-1,3,13-trimethyl-6-oxo-3,4,6,7,8,8a,10a,11,12,13,14,14a-dodecahydro-11,14b-epoxynaphtho[2,1-e]oxecin-12-yl 1H-pyrrole-2-carboxylate], the IC50 (usually the concentration needed to halve the response being measured) in assay [1] (setting [8]) is over 212 µM; in assay [2], 89.1 nM. Also, the MIC in assay [3] is 16 µg/mL (≈ 33.9 µM); in assay [4] it was over 128 µg/mL; in assay [5] it was 64 µg/mL; in assay [6] it was over 128 µg/mL.

In the case of `CO[C@H]1C[C@H]2C=C[C@H]3[C@H]4O[C@]2(/C(C)=C/[C@@H](C)[C@@H]([C@@H](C)OC(=O)OC(C)C)OC1=O)[C@@H]3[C@H](O)[C@@H](C)[C@H]4OC(=O)c1ccc[nH]1` [Example 33], the 50% inhibitory concentration (IC50) in assay [1] (setting [8]) was 58.2 µM; in assay [2], 34.9 nM. Also, the MIC in assay [3] is over 64 µg/mL; in assay [4], over 128 µg/mL; in assay [5], 32 µg/mL; in assay [6], 8 µg/mL (≈ 13.3 µM).

As for `CO[C@H]1C[C@H]2CC[C@H]3[C@H]4O[C@]2(/C(C)=C/[C@@H](C)[C@@H]([C@@H](C)O)OC1=O)[C@@H]3[C@H](O)[C@@H](C)[C@H]4OC(=O)c1ccc[nH]1` [Example 37, (3R,4S,7S,8aR,10aR,11R,12R,13R,14R,14aS,14bS,E)-14-hydroxy-4-((R)-1-hydroxyethyl)-7-methoxy-1,3,13-trimethyl-6-oxo-3,4,6,7,8,8a,9,10,10a,11,12,13,14,14a-tetradecahydro-11,14b-epoxynaphtho[2,1-e]oxecin-12-yl 1H-pyrrole-2-carboxylate], the concentration for half-maximal inhibition (IC50) was over 193 µM in assay [1] (E. coli DnaE IC50) and under 96.6 nM in assay [2]. For the same compound, the MIC in assay [3] is over 8 µg/mL; in assay [4] it was 128 µg/mL (≈ 247 µM); in assay [5], over 8 µg/mL; in assay [6], over 128 µg/mL.
